Reference: patent publication US20140371074A1, “METHOD TO INCREASE PLANT YIELD” (priority 2012, published 2014)

Tested on: soybean cultivars L2084R2, L2711R2X
Assay: Field 2012: 2,4-D Low Vol 4 + crop oil drizzled onto soil at R1 stage, Alexander, Iowa (Table 2a)
Assay type: in vivo
Method: Plants were treated by drizzling via low pressure spraying the 2,4-D solution onto the soil along each side of the rows when plants are at the R1 stage of growth. The date of planting was May 15, 2012 and the date of harvest was Oct. 2, 2012 at plots in Alexander, Iowa (Table 2a) and Laurel, Iowa (Table 2b). Plants were grown from Roundup Ready seed and were sprayed with glyphosate for weed control. Plants were treated with between 1X and 5.5X of 2,4-D solution mixed with crop oil at 15.3 ounces of 2,4-D Low Vol 4 plus 0.32 ounces crop oil per gallon, where 1X is equivalent to approximately 0.45 pounds acid equivalent of 2,4-D. Two repetitions were performed at different plots. […] The moisture percentages were used in correcting each yield to a 13% moisture basis.

[1] = 1.0X Rate, L2084R2, 1X~0.45 lb a.e.
[2] = 1.0X Rate, L2711R2X, 1X~0.45 lb a.e.
[3] = 1.5X Rate, L2084R2, 1X~0.45 lb a.e.
[4] = 1.5X Rate, L2711R2X, 1X~0.45 lb a.e.
[5] = 2.0X Rate, L2084R2, 1X~0.45 lb a.e.
[6] = 2.0X Rate, L2711R2X, 1X~0.45 lb a.e.
[7] = 2.5X Rate, L2084R2, 1X~0.45 lb a.e.
[8] = 2.5X Rate, L2711R2X, 1X~0.45 lb a.e.
[9] = 3.0X Rate, L2084R2, 1X~0.45 lb a.e.
[10] = 3.0X Rate, L2711R2X, 1X~0.45 lb a.e.
[11] = 3.5X Rate, L2084R2, 1X~0.45 lb a.e.
[12] = 3.5X Rate, L2711R2X, 1X~0.45 lb a.e.
[13] = 4.0X Rate, L2084R2, 1X~0.45 lb a.e.
[14] = 4.0X Rate, L2711R2X, 1X~0.45 lb a.e.
[15] = 4.5X Rate, L2084R2, 1X~0.45 lb a.e.
[16] = 4.5X Rate, L2711R2X, 1X~0.45 lb a.e.
[17] = 5.0X Rate, L2084R2, 1X~0.45 lb a.e.
[18] = 5.0X Rate, L2711R2X, 1X~0.45 lb a.e.
[19] = 5.5X Rate, L2084R2, 1X~0.45 lb a.e.
[20] = 5.5X Rate, L2711R2X, 1X~0.45 lb a.e.
[21] = Average over 1.0X-3.0X Rates, L2084R2
[22] = Average over 1.0X-3.0X Rates, L2711R2X
[23] = Average over 1.0X-5.5X Rates, L2084R2
[24] = Average over 1.0X-5.5X Rates, L2711R2X
[25] = Overall location average, all rates, both cultivars

## O=C(O)COc1ccc(Cl)cc1Cl [2,4-D, 2,4-Dichlorophenoxyacetic acid]
[1]
  Average Yield: 47.77 Bu/A
  Repetition 1 Weight: 4.3 Lbs
  Repetition 1 Yield: 49.06 Bu/A
  Repetition 2 Weight: 4.1 Lbs
  Repetition 2 Yield: 46.48 Bu/A
[2]
  Average Yield: 46.66 Bu/A
  Repetition 1 Weight: 3.7 Lbs
  Repetition 1 Yield: 42.30 Bu/A
  Repetition 2 Weight: 4.5 Lbs
  Repetition 2 Yield: 51.02 Bu/A
[3]
  Average Yield: 47.65 Bu/A
  Repetition 1 Weight: 3.4 Lbs
  Repetition 1 Yield: 38.79 Bu/A
  Repetition 2 Weight: 5 Lbs
  Repetition 2 Yield: 56.51 Bu/A
[4]
  Average Yield: 52.85 Bu/A
  Repetition 1 Weight: 3.9 Lbs
  Repetition 1 Yield: 44.54 Bu/A
  Repetition 2 Weight: 5.4 Lbs
  Repetition 2 Yield: 61.16 Bu/A
[5]
  Average Yield: 51.64 Bu/A
  Repetition 1 Weight: 4.5 Lbs
  Repetition 1 Yield: 51.23 Bu/A
  Repetition 2 Weight: 4.6 Lbs
  Repetition 2 Yield: 52.04 Bu/A
[6]
  Repetition 2 Weight: 4.1 Lbs
  Repetition 2 Yield: 46.43 Bu/A
2.0X Rate, L2711R2X, 1X~0.45 lb a.e., repetition 2 only
  Average Yield: 46.43 Bu/A
[7]
  Average Yield: 38.59 Bu/A
  Repetition 1 Weight: 3.1 Lbs
  Repetition 1 Yield: 35.37 Bu/A
  Repetition 2 Weight: 3.7 Lbs
  Repetition 2 Yield: 41.81 Bu/A
[8]
  Average Yield: 39.75 Bu/A
  Repetition 1 Weight: 3.1 Lbs
  Repetition 1 Yield: 35.29 Bu/A
  Repetition 2 Weight: 3.9 Lbs
  Repetition 2 Yield: 44.21 Bu/A
[9]
  Average Yield: 43.14 Bu/A
  Repetition 1 Weight: 3.5 Lbs
  Repetition 1 Yield: 39.89 Bu/A
  Repetition 2 Weight: 4.1 Lbs
  Repetition 2 Yield: 46.38 Bu/A
[10]
  Average Yield: 45.36 Bu/A
  Repetition 1 Weight: 3.7 Lbs
  Repetition 1 Yield: 42.08 Bu/A
  Repetition 2 Weight: 4.3 Lbs
  Repetition 2 Yield: 48.65 Bu/A
[11]
  Repetition 1 Weight: 3.4 Lbs
  Repetition 1 Yield: 38.55 Bu/A
3.5X Rate, L2084R2, 1X~0.45 lb a.e., repetition 1 only
  Average Yield: 38.55 Bu/A
[12]
  Repetition 1 Weight: 4.2 Lbs
  Repetition 1 Yield: 47.77 Bu/A
3.5X Rate, L2711R2X, 1X~0.45 lb a.e., repetition 1 only
  Average Yield: 47.77 Bu/A
[13]
  Repetition 1 Weight: 4.5 Lbs
  Repetition 1 Yield: 51.07 Bu/A
4.0X Rate, L2084R2, 1X~0.45 lb a.e., repetition 1 only
  Average Yield: 51.07 Bu/A
[14]
  Repetition 1 Weight: 5.4 Lbs
  Repetition 1 Yield: 61.28 Bu/A
4.0X Rate, L2711R2X, 1X~0.45 lb a.e., repetition 1 only
  Average Yield: 61.28 Bu/A
[15]
  Repetition 1 Weight: 4.7 Lbs
  Repetition 1 Yield: 53.28 Bu/A
4.5X Rate, L2084R2, 1X~0.45 lb a.e., repetition 1 only
  Average Yield: 53.28 Bu/A
[16]
  Repetition 1 Weight: 4.7 Lbs
  Repetition 1 Yield: 53.40 Bu/A
4.5X Rate, L2711R2X, 1X~0.45 lb a.e., repetition 1 only
  Average Yield: 53.40 Bu/A
[17]
  Repetition 1 Weight: 4.1 Lbs
  Repetition 1 Yield: 46.58 Bu/A
5.0X Rate, L2084R2, 1X~0.45 lb a.e., repetition 1 only
  Average Yield: 46.58 Bu/A
[18]
  Repetition 1 Weight: 4.3 Lbs
  Repetition 1 Yield: 48.90 Bu/A
5.0X Rate, L2711R2X, 1X~0.45 lb a.e., repetition 1 only
  Average Yield: 48.90 Bu/A
[19]
  Repetition 1 Weight: 4.2 Lbs
  Repetition 1 Yield: 47.67 Bu/A
5.5X Rate, L2084R2, 1X~0.45 lb a.e., repetition 1 only
  Average Yield: 47.67 Bu/A
[20]
  Repetition 1 Weight: 4.1 Lbs
  Repetition 1 Yield: 46.48 Bu/A
5.5X Rate, L2711R2X, 1X~0.45 lb a.e., repetition 1 only
  Average Yield: 46.48 Bu/A
[21]
  Repetition 2 Weight: 4.3 Lbs
  Repetition 2 Yield: 48.65 Bu/A
[22]
  Repetition 2 Weight: 4.4 Lbs
  Repetition 2 Yield: 50.29 Bu/A
[23]
  Average Yield: 46.59 Bu/A
  Repetition 1 Weight: 4.0 Lbs
  Repetition 1 Yield: 45.15 Bu/A
[24]
  Average Yield: 48.89 Bu/A
  Repetition 1 Weight: 4.1 Lbs
  Repetition 1 Yield: 46.89 Bu/A
[25]
  Average Yield: 47.74 Bu/A
  Repetition 1 Weight: 4.0 Lbs
  Repetition 1 Yield: 45.97 Bu/A
  Repetition 2 Weight: 4.4 Lbs
  Repetition 2 Yield: 49.47 Bu/A
Table 2a, 2,4-D mixture 1.0X-5.5X vs untreated
  plant yield (in words): increases plant yield
